Among the data in US9771369B2, “Compounds and methods for kinase modulation, and indications therefor” (Plexxikon Inc., priority 2014, dated 2017) are IC50 values, retold here.

This experiment deals with c-kit mutant D816V (Homo sapiens (Human), UniProt P10721, D816V/DEL694-753). Put plainly: c-Kit mutant D816V biochemical assay (AlphaScreen kinase activity). An outline of the steps: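 Recombinant His-tagged c-Kit D816V kinase domain (residues 551-934, insert 694-753 deleted, E. coli-expressed) phosphorylating 30 nM biotin-(E4Y)10 with 10 μM ATP, HEPES pH 7.2, Mg/Mn, 5% DMSO; 30 min, room temperature. Phosphorylation detected by AlphaScreen (streptavidin donor/PY30 acceptor beads); IC50 from 8-point 1:3 series.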
c-kit mutant D816V, sequence (P10721 other isoform, or with tags, fused parts or gaps D816V/del 694-753): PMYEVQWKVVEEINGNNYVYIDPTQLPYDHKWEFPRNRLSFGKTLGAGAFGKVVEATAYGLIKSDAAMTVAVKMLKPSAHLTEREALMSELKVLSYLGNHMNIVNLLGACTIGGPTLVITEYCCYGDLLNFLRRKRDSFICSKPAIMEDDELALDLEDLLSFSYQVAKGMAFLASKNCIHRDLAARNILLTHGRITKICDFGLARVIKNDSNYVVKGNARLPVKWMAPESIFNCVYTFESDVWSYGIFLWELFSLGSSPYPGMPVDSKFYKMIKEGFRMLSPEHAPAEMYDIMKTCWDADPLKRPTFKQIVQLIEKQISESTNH
A general note: Alpha assays give light when donor and acceptor beads are brought close together.
One may read the IC50 as the point on the concentration scale where inhibition reaches its midpoint. The molecule `Cc1nc(C2CCN(c3ncnc4[nH]c(-c5ccc(F)cc5)cc34)CC2)[nH]c1-c1ccc(F)cc1` [P-3006, 6-(4-fluorophenyl)-4-[4-[5-(4-fluorophenyl)-4-methyl-1H-imidazol-2-yl]-1-piperidyl]-7H-pyrrolo[2,3-d]pyrimidine] yielded an IC50 of 0.0001 to 1 µM. `Cc1ccc(-c2[nH]c(C3CCN(c4ncnc5[nH]c(-c6ccc(C#N)cc6)cc45)CC3)nc2C)cc1` [P-3089, 4-[4-[4-[4-methyl-5-(p-tolyl)-1H-imidazol-2-yl]-1-piperidyl]-7H-pyrrolo[2,3-d]pyrimidin-6-yl]benzonitrile]: the IC50 was 0.0001 to 1 µM. `Cc1ccc(-c2[nH]c(C3CCN(c4ncnc5[nH]c(-c6ccc(C#N)cc6)cc45)CC3)nc2C)s1` [P-3090, 4-[4-[4-[4-methyl-5-(5-methyl-2-thienyl)-1H-imidazol-2-yl]-1-piperidyl]-7H-pyrrolo[2,3-d]pyrimidin-6-yl]benzonitrile]: the IC50 is 0.0001 to 1 µM. To `COc1cc(-c2cc3c(N4CCC(c5nc(C)c(-c6ccc(OC(C)C)cc6)[nH]5)CC4)ncnc3[nH]2)ccn1` [P-3091, 4-[4-[5-(4-isopropoxyphenyl)-4-methyl-1H-imidazol-2-yl]-1-piperidyl]-6-(2-methoxy-4-pyridyl)-7H-pyrrolo[2,3-d]pyrimidine] belongs 0.0001 to 1 µM.

Consider `Cc1nc(C2CCN(c3ncnc4[nH]c(-c5ccc(F)cc5)cc34)CC2)[nH]c1-c1ccc(OC(C)C)cc1` [P-3092, 6-(4-fluorophenyl)-4-[4-[5-(4-isopropoxyphenyl)-4-methyl-1H-imidazol-2-yl]-1-piperidyl]-7H-pyrrolo[2,3-d]pyrimidine], for which the concentration for half-maximal inhibition (IC50) was in the range of 0.0001 to 1 µM.

The molecule `Cc1nc(C2CCN(c3ncnc4[nH]c(-c5ccc(C#N)cc5)cc34)CC2)[nH]c1-c1ccc(OC(C)C)cc1` [P-3093, 4-[4-[4-[5-(4-isopropoxyphenyl)-4-methyl-1H-imidazol-2-yl]-1-piperidyl]-7H-pyrrolo[2,3-d]pyrimidin-6-yl]benzonitrile] returned a half-maximal inhibitory concentration (IC50) of 0.0001 to 1 µM. To `CCOc1cc(-c2[nH]c(C3CCN(c4ncnc5[nH]c(-c6ccc(F)cc6)cc45)CC3)nc2C)ccc1C` [P-3094, 4-[4-[5-(3-ethoxy-4-methyl-phenyl)-4-methyl-1H-imidazol-2-yl]-1-piperidyl]-6-(4-fluorophenyl)-7H-pyrrolo[2,3-d]pyrimidine] belongs 0.0001 to 1 µM.
